Measured values from ChEMBL document CHEMBL5380818, “BAY-6096: A Potent, Selective, and Highly Water-Soluble Adrenergic α2B Antagonist” (J Med Chem, 2023).
Values after ≈ are worked out from the molar mass of the structure shown. One block for each compound: values may come before it.

Assays:
[1] = Solubility of the compound in pH 7 shaken for 24 hrs; format: physicochemical; conditions: buffer
[2] = Mutagenecity in Salmonella typhimurium in presence of s9 fraction by Ames test; format: toxicity, subcellular; conditions: salmonella enterica subsp. enterica serovar typhimurium
[3] = Permeability across apical to basolateral side human Caco-2 cells incubated for 2 hrs measured by LC/MS/MS analysis; format: ADME, cell-based; conditions: caco-2, 2 h
[4] = Chemical stability of the compound in 0.9% NaCl at pH 7.4 measured upto 1 week at 90 degC; format: physicochemical; conditions: buffer, pH 7.4, 168 h; time < 1 weeks
[5] = Chemical stability of the compound in 0.9% NaCl at pH 7.4 measured for 13 week at 40 degC; format: physicochemical; conditions: buffer, pH 7.4, 2184 h; time 13 weeks
[6] = Chemical stability of the compound at pH 1 measured upto 7 days; format: physicochemical; conditions: buffer, pH 1, 168 h; time < 7 day
[7] = Chemical stability of the compound at pH 7 measured upto 7 days; format: physicochemical; conditions: buffer, pH 7, 168 h; time < 7 day
[8] = Chemical stability of the compound at pH 10 measured upto 7 days; format: physicochemical; conditions: buffer, pH 10, 168 h; time < 7 day
[9] = Stability of the compound assessed as no adsorption to the sterile filter at pH 7.4 in 0.9% NaCl by measuring feasibility of sterilization using HPLC analysis; format: physicochemical; conditions: buffer
[10] = Stability of the compound assessed as no adsorption to the sterile filter at pH 7.4 in 0.9% NaCl by measuring feasibility of sterilization at 121 degC for 15 mins using HPLC analysis; format: physicochemical; conditions: buffer
[11] = Plasma protein binding in human plasma assessed as unbound fraction by equilibrium dialysis base LC-MS/MS analysis; format: ADME, cell-free
[12] = Plasma protein binding in rat plasma assessed as unbound fraction by equilibrium dialysis base LC-MS/MS analysis; format: ADME, cell-free
[13] = Plasma protein binding in dog plasma assessed as unbound fraction by equilibrium dialysis base LC-MS/MS analysis; format: ADME, cell-free, Canis lupus familiaris
[14] = Plasma protein binding in monkey plasma assessed as unbound fraction by equilibrium dialysis base LC-MS/MS analysis; format: ADME, cell-free, Macaca mulatta; conditions: rhesus monkey
Cytochrome P450 1A2 [15] = biological target: T1, Cytochrome P450 1A2 (Homo sapiens, UniProt P05177); experiment: Inhibition of human liver microsome CYP1A2 at 0.6 to 20 uM measured by LC/MS/MS analysis; format: ADME; conditions: microsomes, dose 0.6-20 µM
T1 sequence (P05177 whole entry): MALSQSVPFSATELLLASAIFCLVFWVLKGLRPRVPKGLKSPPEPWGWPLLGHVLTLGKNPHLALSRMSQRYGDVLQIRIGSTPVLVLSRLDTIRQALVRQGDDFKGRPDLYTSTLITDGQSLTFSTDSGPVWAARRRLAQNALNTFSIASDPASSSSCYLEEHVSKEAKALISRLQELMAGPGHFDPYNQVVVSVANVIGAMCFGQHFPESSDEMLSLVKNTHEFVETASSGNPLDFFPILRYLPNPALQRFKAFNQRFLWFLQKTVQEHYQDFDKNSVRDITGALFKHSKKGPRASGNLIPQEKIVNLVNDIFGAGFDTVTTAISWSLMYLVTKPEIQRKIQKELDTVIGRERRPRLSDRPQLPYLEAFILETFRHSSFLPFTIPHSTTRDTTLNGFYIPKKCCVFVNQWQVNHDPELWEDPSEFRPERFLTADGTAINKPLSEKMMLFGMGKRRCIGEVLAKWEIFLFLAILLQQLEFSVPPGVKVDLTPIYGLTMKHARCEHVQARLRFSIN

Cytochrome P450 2C8 = biological target: T2, Cytochrome P450 2C8 (Homo sapiens, UniProt P10632); experiment: Inhibition of human liver microsome CYP2C8 at 0.6 to 20 uM measured by LC/MS/MS analysis; format: ADME; conditions: microsomes, dose 0.6-20 µM
T2 sequence (P10632 whole entry): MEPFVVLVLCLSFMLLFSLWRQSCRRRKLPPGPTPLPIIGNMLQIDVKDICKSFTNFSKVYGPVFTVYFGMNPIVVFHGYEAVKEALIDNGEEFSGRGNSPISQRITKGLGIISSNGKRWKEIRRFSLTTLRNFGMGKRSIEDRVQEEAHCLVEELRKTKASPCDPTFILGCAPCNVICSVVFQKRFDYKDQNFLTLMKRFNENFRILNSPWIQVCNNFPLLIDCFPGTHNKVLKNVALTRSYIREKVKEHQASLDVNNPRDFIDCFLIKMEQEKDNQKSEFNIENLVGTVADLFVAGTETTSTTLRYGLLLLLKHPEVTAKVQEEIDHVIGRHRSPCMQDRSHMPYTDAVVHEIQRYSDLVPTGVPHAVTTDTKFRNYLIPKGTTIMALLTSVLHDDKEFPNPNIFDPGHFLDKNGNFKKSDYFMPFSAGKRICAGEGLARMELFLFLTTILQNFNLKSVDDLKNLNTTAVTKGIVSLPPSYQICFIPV

Cytochrome P450 2C9 = Cytochrome P450 2C9 (Homo sapiens, UniProt P11712); experiment: Inhibition of human liver microsome CYP2C9 at 0.6 to 20 uM measured by LC/MS/MS analysis; format: ADME; conditions: microsomes, dose 0.6-20 µM
Cytochrome P450 2D6 = Cytochrome P450 2D6 (Homo sapiens, UniProt P10635); experiment: Inhibition of human liver microsome CYP2D6 at 0.6 to 20 uM measured by LC/MS/MS analysis; format: ADME; conditions: microsomes, dose 0.6-20 µM
Cytochrome P450 3A4 [16] = biological target: T3, Cytochrome P450 3A4 (Homo sapiens, UniProt P08684); experiment: Inhibition of human liver microsome CYP3A4 at 0.6 to 20 uM measured by LC/MS/MS analysis; format: ADME; conditions: microsomes, dose 0.6-20 µM
[17] = Clearance in dog plasma 0.3 mg/kg, iv measured 0.033 to 24 hrs by LC-MS/MS analysis; format: ADME, organism-based, Canis lupus familiaris; conditions: time 0.033-24 hrs
Cytochrome P450 1A2 [18] = biological target: T1, Cytochrome P450 1A2; experiment: Induction of human hepatocyte CYP1A2 treated upto 211 uM for 48 hrs by measuring mRNA expression using delta delta Ct method; format: ADME, cell-based; conditions: hepatocytes
Cytochrome P450 3A4 [19] = biological target: T3, Cytochrome P450 3A4; experiment: Induction of human hepatocyte CYP3A4 treated upto 211 uM for 48 hrs by measuring mRNA expression using delta delta Ct method; format: ADME, cell-based; conditions: hepatocytes
[20] = biological target: Voltage-gated inwardly rectifying potassium channel KCNH2 (Homo sapiens, UniProt Q12809); experiment: Inhibition of hERG by electrode whole cell voltage clamp method; format: toxicity
[21] = biological target: Sodium channel protein type 5 subunit alpha (Homo sapiens, UniProt Q14524); experiment: Inhibition of human Nav1.5 channel; format: toxicity
[22] = biological target: Voltage-dependent L-type calcium channel subunit alpha-1C (Homo sapiens, UniProt Q13936); experiment: Inhibition of human Cav1.2 channel; format: toxicity
[23] = Clearance in Wistar rat plasma 0.3 mg/kg, iv measured upto 24 hrs by LC-MS/MS analysis; format: ADME, organism-based; conditions: in vivo
[24] = Volume of distribution at steady state in Wistar rat plasma 0.3 mg/kg, iv measured upto 24 hrs by LC-MS/MS analysis; format: ADME, organism-based; conditions: in vivo
[25] = Mean residence time in Wistar rat plasma 0.3 mg/kg, iv measured upto 24 hrs by LC-MS/MS analysis; format: ADME, organism-based; conditions: in vivo
[26] = Volume of distribution at steady state in dog plasma 0.3 mg/kg, iv measured 0.033 to 24 hrs by LC-MS/MS analysis; format: ADME, organism-based, Canis lupus familiaris; conditions: time 0.033-24 hrs, read-out: Vdss
[27] = Chemical stability of the compound assessed as decomposition at pH 1 measured upto 24 hrs; format: physicochemical; conditions: buffer, pH 1, 24 h
[28] = Chemical stability of the compound assessed as decomposition at pH 7 measured upto 24 hrs; format: physicochemical; conditions: buffer, pH 7, 24 h
[29] = Chemical stability of the compound assessed as decomposition at pH 10 measured upto 24 hrs; format: physicochemical; conditions: buffer, pH 10, 24 h
[30] = Metabolic stability in rat liver microsomes at pH 7.4 in presence of NADPH/UDPGA by LC/MS/MS analysis; format: ADME, Microsome
[31] = Metabolic stability in dog liver microsomes at pH 7.4 in presence of NADPH/UDPGA by LC/MS/MS analysis; format: ADME, Canis lupus familiaris, Microsome
[32] = Metabolic stability in cryopreserved rat liver hepatocytes at 10 uM incubated upto 4 hrs by LC/MS/MS analysis; format: ADME, cell-based, Hepatocyte
[33] = Metabolic stability in cryopreserved dog liver hepatocytes at 10 uM incubated upto 4 hrs by LC/MS/MS analysis; format: ADME, cell-based, Canis lupus familiaris, Hepatocyte
[34] = Metabolic stability in cryopreserved human liver hepatocytes at 10 uM incubated upto 4 hrs by LC/MS/MS analysis; format: ADME, cell-based, Hepatocyte
[35] = biological target: T4, Alpha-2B adrenergic receptor (Homo sapiens, UniProt P18089); experiment: Antagonist activity at human recombinant adrenergic alpha2B receptor expressed in CHO cell treated with compound for 5 mins followed by norepinephrine measured for 50 secs by microtitre plate method; format: functional, cell-based
T4 sequence (P18089 whole entry): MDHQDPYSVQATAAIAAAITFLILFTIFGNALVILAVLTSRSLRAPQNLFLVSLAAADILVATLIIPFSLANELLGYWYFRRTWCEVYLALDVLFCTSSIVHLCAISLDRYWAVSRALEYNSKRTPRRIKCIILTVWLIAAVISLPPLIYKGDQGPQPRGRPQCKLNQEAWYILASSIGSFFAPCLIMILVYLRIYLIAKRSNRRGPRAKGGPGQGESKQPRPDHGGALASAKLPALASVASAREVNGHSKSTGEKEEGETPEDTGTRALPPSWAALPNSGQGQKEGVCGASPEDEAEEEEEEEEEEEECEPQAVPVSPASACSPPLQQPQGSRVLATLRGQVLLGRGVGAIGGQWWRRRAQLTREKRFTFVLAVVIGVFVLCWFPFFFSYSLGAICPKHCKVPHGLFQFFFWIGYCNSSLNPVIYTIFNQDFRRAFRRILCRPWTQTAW

T3 sequence (P08684 whole entry): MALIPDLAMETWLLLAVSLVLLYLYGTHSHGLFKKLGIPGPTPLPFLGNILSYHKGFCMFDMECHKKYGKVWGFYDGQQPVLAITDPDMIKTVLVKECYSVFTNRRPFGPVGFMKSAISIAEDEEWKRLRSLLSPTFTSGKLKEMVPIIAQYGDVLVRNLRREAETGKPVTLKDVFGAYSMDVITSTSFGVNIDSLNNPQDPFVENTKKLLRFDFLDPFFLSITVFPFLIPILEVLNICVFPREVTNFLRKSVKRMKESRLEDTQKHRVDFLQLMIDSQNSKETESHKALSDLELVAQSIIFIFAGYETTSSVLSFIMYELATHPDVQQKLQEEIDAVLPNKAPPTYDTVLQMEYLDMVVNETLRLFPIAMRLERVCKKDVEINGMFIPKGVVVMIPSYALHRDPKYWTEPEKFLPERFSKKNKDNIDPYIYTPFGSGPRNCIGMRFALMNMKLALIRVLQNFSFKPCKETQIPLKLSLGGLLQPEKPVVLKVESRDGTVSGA
Sequence of Voltage-gated inwardly rectifying potassium channel KCNH2 (Q12809 whole entry): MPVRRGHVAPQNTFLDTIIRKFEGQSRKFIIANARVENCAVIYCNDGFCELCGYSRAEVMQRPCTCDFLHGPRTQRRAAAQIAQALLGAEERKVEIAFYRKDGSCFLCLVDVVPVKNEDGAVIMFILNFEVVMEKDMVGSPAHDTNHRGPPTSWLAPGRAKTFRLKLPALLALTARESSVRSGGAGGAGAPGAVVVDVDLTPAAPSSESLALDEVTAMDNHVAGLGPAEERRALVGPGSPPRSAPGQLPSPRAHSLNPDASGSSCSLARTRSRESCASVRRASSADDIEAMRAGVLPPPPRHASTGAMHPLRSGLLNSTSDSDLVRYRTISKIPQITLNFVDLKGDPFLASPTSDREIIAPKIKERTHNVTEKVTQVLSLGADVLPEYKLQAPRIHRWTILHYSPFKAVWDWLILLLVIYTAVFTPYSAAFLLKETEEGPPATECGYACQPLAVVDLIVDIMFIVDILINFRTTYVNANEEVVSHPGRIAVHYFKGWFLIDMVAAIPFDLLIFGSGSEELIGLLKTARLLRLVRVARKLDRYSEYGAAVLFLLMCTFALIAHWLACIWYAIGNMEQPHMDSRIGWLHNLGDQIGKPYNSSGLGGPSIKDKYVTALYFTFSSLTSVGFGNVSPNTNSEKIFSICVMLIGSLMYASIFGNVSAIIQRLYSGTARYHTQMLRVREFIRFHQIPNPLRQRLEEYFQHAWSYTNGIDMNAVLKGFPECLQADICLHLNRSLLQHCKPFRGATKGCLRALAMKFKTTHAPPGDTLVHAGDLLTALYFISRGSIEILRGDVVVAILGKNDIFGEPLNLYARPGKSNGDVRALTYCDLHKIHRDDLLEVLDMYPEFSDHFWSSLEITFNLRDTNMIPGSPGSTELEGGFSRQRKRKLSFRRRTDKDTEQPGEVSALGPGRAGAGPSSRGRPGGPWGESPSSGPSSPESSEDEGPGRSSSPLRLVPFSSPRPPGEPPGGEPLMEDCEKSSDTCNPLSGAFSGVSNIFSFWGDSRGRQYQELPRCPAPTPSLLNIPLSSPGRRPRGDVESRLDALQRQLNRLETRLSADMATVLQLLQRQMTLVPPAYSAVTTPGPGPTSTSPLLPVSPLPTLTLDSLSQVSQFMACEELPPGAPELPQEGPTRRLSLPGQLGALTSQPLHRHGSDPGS
Sequence of Cytochrome P450 2C9 (P11712 whole entry): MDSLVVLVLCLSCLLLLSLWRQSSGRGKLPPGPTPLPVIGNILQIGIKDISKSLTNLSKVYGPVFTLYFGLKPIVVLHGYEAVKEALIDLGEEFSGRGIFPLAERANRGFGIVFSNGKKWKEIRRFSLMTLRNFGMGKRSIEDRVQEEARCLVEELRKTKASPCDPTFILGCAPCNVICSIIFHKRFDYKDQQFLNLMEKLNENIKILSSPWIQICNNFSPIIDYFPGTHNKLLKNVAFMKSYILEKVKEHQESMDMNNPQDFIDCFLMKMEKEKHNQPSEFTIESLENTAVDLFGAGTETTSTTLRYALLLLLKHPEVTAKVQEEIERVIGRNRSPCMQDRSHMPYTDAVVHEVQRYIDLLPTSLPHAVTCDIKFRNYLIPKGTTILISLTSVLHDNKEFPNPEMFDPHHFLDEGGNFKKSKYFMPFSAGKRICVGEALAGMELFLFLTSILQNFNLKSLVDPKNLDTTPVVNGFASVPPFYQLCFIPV
Sequence of Sodium channel protein type 5 subunit alpha (Q14524 whole entry): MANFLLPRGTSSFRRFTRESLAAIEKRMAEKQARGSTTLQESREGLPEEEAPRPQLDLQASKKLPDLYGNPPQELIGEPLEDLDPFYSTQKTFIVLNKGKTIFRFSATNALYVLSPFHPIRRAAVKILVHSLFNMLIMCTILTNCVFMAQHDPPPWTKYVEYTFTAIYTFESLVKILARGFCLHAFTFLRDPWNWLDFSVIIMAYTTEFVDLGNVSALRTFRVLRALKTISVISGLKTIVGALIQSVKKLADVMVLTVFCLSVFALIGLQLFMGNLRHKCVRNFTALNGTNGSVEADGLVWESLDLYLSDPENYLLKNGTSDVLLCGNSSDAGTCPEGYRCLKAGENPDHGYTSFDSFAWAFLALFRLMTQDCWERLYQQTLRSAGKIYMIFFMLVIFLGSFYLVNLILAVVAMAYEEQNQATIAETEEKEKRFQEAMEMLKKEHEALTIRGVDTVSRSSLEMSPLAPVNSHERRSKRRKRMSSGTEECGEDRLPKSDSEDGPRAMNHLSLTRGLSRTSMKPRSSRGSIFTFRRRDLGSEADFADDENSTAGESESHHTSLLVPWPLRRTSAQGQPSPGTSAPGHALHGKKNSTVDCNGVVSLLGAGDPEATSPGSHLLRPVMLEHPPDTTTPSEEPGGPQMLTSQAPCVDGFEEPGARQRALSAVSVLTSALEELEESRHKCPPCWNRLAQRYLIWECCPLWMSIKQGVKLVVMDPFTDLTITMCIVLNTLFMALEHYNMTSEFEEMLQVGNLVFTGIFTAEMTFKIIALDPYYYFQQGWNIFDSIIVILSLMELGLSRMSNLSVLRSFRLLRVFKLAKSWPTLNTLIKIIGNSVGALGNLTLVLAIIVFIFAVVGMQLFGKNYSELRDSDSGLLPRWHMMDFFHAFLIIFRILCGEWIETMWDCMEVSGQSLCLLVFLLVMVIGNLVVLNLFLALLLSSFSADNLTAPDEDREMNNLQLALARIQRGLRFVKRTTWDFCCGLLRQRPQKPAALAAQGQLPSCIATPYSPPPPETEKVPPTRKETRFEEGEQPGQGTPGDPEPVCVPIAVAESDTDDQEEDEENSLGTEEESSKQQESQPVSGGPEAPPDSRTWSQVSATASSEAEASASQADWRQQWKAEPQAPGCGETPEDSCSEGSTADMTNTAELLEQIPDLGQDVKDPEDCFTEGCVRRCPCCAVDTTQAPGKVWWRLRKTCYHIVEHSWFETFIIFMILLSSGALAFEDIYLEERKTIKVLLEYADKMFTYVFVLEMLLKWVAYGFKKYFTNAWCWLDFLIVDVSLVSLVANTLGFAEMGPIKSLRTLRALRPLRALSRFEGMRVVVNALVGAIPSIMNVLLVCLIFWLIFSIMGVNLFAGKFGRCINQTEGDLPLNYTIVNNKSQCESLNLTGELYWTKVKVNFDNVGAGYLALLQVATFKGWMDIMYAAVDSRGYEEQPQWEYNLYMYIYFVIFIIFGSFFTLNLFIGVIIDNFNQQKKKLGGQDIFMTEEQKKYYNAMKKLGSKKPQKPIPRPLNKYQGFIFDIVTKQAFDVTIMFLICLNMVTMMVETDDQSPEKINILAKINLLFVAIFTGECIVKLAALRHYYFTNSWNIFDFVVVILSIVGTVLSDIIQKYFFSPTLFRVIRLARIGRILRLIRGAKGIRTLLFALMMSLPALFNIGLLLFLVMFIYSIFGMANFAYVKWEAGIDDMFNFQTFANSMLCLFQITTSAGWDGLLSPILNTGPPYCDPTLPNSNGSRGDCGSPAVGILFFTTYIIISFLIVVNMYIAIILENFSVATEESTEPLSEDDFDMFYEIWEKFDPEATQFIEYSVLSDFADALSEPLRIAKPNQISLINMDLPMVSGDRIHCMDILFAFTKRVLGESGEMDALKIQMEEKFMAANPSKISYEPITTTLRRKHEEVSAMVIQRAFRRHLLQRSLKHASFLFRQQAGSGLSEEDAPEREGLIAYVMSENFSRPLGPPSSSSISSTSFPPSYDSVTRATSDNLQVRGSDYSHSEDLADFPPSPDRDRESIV
Sequence of Cytochrome P450 2D6 (P10635 whole entry): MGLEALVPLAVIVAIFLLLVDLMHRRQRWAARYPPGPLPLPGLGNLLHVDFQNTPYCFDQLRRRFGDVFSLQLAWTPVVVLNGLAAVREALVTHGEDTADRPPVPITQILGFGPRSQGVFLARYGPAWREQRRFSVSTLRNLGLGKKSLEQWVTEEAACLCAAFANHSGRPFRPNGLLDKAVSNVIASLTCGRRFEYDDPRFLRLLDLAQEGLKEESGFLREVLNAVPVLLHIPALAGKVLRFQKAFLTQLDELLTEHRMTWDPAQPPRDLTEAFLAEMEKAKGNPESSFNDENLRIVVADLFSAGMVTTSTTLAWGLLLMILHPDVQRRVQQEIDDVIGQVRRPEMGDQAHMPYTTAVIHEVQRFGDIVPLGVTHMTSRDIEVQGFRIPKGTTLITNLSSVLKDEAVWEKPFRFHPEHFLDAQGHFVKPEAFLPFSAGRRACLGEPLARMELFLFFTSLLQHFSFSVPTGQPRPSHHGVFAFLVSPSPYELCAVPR

solubility thermodynamic at 24 h [1]: 300 µg/mL (≈ 1070 µM)
Compound: COc1ccccc1-n1cnc2cc(NC(C)=O)ccc21

Compound: Cc1noc(C)c1-n1cnc2cc(N)ccc21
Activity [2]: Toxic

solubility thermodynamic at 24 h [1]: 20 µg/mL (≈ 53.7 µM)
Compound: COc1ccccc1-n1cnc2cc(NC(=O)CCc3ccccn3)ccc21

permeability [3]: 3 nm/s
Stability [4]: Stable
Stability [5]: Stable
Stability [6]: Stable
Stability [7]: Stable
Stability [8]: Stable
Stability [9]: Stable
Stability [10]: Stable
Fu [11]: 85%
Fu [12]: 79%
Fu [13]: 82%
Fu [14]: 92%
inhibition (INH) (Cytochrome P450 1A2 [15]): Not Active
inhibition (INH) (Cytochrome P450 2C8): Not Active
inhibition (INH) (Cytochrome P450 2C9): Not Active
inhibition (INH) (Cytochrome P450 2D6): Not Active
inhibition (INH) (Cytochrome P450 3A4 [16]): Not Active
clearance [17]: 26.7 mL/min/kg
Activity (Cytochrome P450 1A2 [18]): Not Active
Activity (Cytochrome P450 3A4 [19]): Not Active
CL [23]: 4.3 L/h/kg
Vdss [24]: 0.5 L/kg
MRT [25]: 6 min
Vd [26]: 0.6 L/kg
Compound: CNc1cc[n+](CCNC(=O)c2ccn3c(-c4c(C)noc4C)cnc3c2)cc1.[Cl-]
Activity [2]: Non-Toxic
inhibition (INH) [20]: Not Active
inhibition (INH) [21]: Not Active
inhibition (INH) [22]: Not Active

Compound: CNc1cc[n+](CC(=O)Nc2cccc(C)c2)cc1.O=C[O-]
Activity [2]: Non-Toxic

Compound: CNc1cc[n+](CCNC(=O)c2ccc3c(c2)ncn3-c2c(C)noc2C)cc1.O=C[O-]
Activity [2]: Non-Toxic

Compound: CNc1cc[n+](CC(=O)Nc2cnc3c(c2)ncn3-c2ccccc2OC)cc1.O=C[O-]
Activity [2]: Toxic

Compound: CNc1ccncc1
Activity [2]: Non-Toxic

Compound: Cc1noc(C)c1N
Activity [2]: Non-Toxic

Compound: CNc1cc[n+](CC(=O)Nc2ccc3c(c2)ncn3-c2c(C)noc2C)cc1.O=C[O-]
Stability [27]: Stable
Stability [28]: Stable
Stability [29]: Stable
Stability [30]: Stable
Stability [31]: Stable
Stability [32]: Stable
Stability [33]: Stable
Stability [34]: Stable
permeability [3]: 3.6 nm/s
Activity [2]: Toxic

IC50 [35]: 7.05 µM
Compound: CNc1cc[n+](CC(Nc2ccc3c(c2)ncn3-c2c(C)noc2C)C(F)(F)F)cc1 (racemic)
